Measured values from ChEMBL document CHEMBL1151978, “Epiquinamide: a poison that wasn't from a frog that was” (J Nat Prod, 2009).
Active and inactive are the calls of the source. The rule behind the calls is not given here.

Columns and labels:
[1] = target: T1, Neuronal acetylcholine receptor; alpha4/beta2 (Rattus norvegicus) (UniProt P09483+P12390); test: Displacement of [3H]epibatidine from alpha4beta2 nicotinic acetylcholine receptor in rat cerebral cortical membrane at 100 uM; type: cell membranes
[2] = target: T2, Neuronal acetylcholine receptor; alpha3/beta4 (Rattus norvegicus) (UniProt P04757+P12392); test: Inhibition of rat alpha3beta4 nicotinic acetylcholine receptor activation expressed in HEK293 cells assessed as intracellular calcium level at 500 uM by fluorescence assay; type: cell-based
[3] = target: T1, Neuronal acetylcholine receptor; alpha4/beta2 (Rattus norvegicus); test: Displacement of [3H]epibatidine from alpha4beta2 nicotinic acetylcholine receptor in rat cerebral cortical membrane up to 100 uM; type: cell membranes
[4] = target: T2, Neuronal acetylcholine receptor; alpha3/beta4 (Rattus norvegicus); test: Inhibition of rat alpha3beta4 nicotinic acetylcholine receptor activation expressed in HEK293 cells assessed as intracellular calcium level up to 100 uM by fluorescence assay; type: cell-based

| Structure (SMILES) | Activity [1] | Activity [2] | Activity [3] | Activity [4] |
| --- | --- | --- | --- | --- |
| O=[N+]([O-])[C@H]1CCCN2CCCC[C@H]12 | inactive | inactive |  |  |
| O=C(O)[C@@H]1CCCN2CCCC[C@H]12 |  |  | inactive | inactive |
